Reference: paper PMC5716993, “The interdomain flexible linker of the polypeptide GalNAc transferases dictates their long-range glycosylation preferences” (Nature Communications, 2017)
Entries after “also recorded” stand apart in the source; their conditions may differ.

Legend:
GalNAc-T2 = target: T1, GalNAc-T2 (Homo sapiens, UniProt Q10471); assay: Transferase assay / Michaelis-Menten kinetics of GalNAc-T2; type: biochemical; conditions: for Vmax / Km: GalNAc-T2 (0.02 µM), pH 6.5 cacodylate, 37 °C, 0.25 mM UDP-[3H]-GalNAc, Michaelis-Menten fit (1/y weighting), ± standard deviation; for Vmax: 10 mM MnCl2, scintillation counting; for Catalytic efficiency (Vmax/Km): errors estimated from the largest percent error of Vmax or Km
T1 construct: the previous reported template pPICZαAgalnact2 (K75-Q571); made in house; host or cells: Pichia pastoris (pPICZαA)
Method: (§1) Specific activity determinations: GalNAc-T glycosylation reactions against (glyco)peptides 1–3 were performed with 75 mM sodium cacodylate, pH 6.5, 1 mM 2-mercaptoethanol, 10 mM MnCl2, 0.25 mM [^3H]-radiolabeled UDP-GalNAc (~6 × 10^8 DPM/µmole, American Radiolabeled Chemicals Inc.), and 1.4 mM (~1.25 mg/ml) of (glyco)peptide (from 4 mM stock in 1 mM TRIS, pH ~7) and varying concentrations (0.01 to 0.5 µM) of transferase (determined by OD280), giving a final reaction volumes of 20 µl in 100 µl capped Eppendorf tubes. Reactions were incubated at 37 °C in a thermostated microplate shaker (Taitec Microincubator M-36) and quenched at the appropriate reaction time by the addition of 20 µl of 250 mM EDTA and placed on ice prior to final workup. Typically, for each transferase, glycosylation reactions were performed at the same time with all three (glyco)peptide substrates (including a no peptide control) using the same batch of transferase and the same UDP-[^3H]-GalNAc stock. Before performing time course experiments, the relative activity of each transferase was determined by trial and error against all three peptides to determine the optimal transferase concentration or incubation time that gave no more than 10% peptide glycosylation against the best substrate. Final time course experiments typically consisted of incubation times of 10, 20, and 30, or 30, 60, and 90 or 120 min (depending on activity) and were performed at least twice. Most transferases were also characterized at two different enzyme concentrations (0.01–0.03 and 0.2–0.5 µM) and the results combined. After quenching the reaction and diluting to 4 ml, free UDP and non-hydrolyzed UDP-GalNAc were removed by passage over a Dowex 1 × 8 anion exchange resin (~3 ml column). Total UDP-[^3H]-GalNAc utilization (transfer to peptide substrate and transfer to water, i.e, hydrolysis) was determined by difference after scintillation counting (Beckman LS5801 scintillation counter) 1/20 of the sample before and after passage over Dowex 1 × 8. The extent of [^3H]-GalNAc transfer to peptide and the extent of hydrolysis was determined by Sephadex G10 gel filtration analysis, typically for the longest reaction time point, as previously described. Example gel filtration chromatograms are given in Supplementary Fig. 12. Significant hydrolysis was only observed for GalNAc-T4, which was corrected for in determining its specific activity. Specific activity was obtained by calculating at each individual data time point (of the combined time course plots, Fig. 4b), an individual-specific activity, which was then averaged to obtain the overall average specific activity (and standard deviation). Specific activity is reported as nmol of glycopeptide product formed per min, per pmol of enzyme. Substrate activity ratios (i.e., substrate ratios 2/1, 3/1, and 3/2) were also obtained at each individual time point and averaged (with standard deviation). […] Note that the Microsoft Excel least squares fitting function LINEST was used to obtain the linear plots shown in Fig. 4b while fixing the y intercept to zero. Note that the specific activity calculated from the least square slope differed slightly (less than 10%) from that determined from the average of the individual time points.
(§2) Detailed enzyme kinetics on GalNAc-T4, GalNAc-T2, the GalNAc-T2 triple mutant and GalNAc-T2 chimera 3: Glycosylation reactions were performed as described above using a fixed enzyme concentration (0.06 µM for GalNAc-T4, and 0.02 µM for GalNAc-T2 and its linker constructs) with varying peptide concentrations (typically 45, 90, 180, 350, 700, 1400, and 2000 μM). Incubation times (10–90 min) were chosen such that no more than 30% of the UDP-GalNAc donor was depleted while typically giving less than 10% peptide glycosylation, after correction for UDP-GalNAc hydrolysis described above. Specific activities were obtained from one to two individual incubation time points performed in two–three separate experiments. […]

[1] = target: T2, GalNAc-T2-t4Flexible linker (Chimera 3) (Homo sapiens, UniProt Q10471, A446W/D441E/D444P/E436N/F447H/H442D/I445G/Q443R/R438H); assay: Transferase assay / Michaelis-Menten kinetics of GalNAc-T2 chimera 3; type: biochemical; conditions: for Vmax / Km: Chimera 3 (0.02 µM), pH 6.5 cacodylate, 37 °C, 0.25 mM UDP-[3H]-GalNAc, Michaelis-Menten fit, ± standard deviation; for Vmax: 10 mM MnCl2; for Catalytic efficiency (Vmax/Km): Chimera 3, errors estimated from the largest percent error of Vmax or Km
T2 construct: made in house; host or cells: Pichia pastoris SMD1168 (pPICZαA)
Method: as §1, §2

[2] = test system: GalNAc-T2 chimera 1 and 2; assay: Specific activity of GalNAc-T2 chimera 1 and 2; type: biochemical; conditions: 1.4 mM, in words
Method: (§3) Specific activity determinations: GalNAc-T glycosylation reactions against (glyco)peptides 1–3 were performed with 75 mM sodium cacodylate, pH 6.5, 1 mM 2-mercaptoethanol, 10 mM MnCl2, 0.25 mM [^3H]-radiolabeled UDP-GalNAc (~6 × 10^8 DPM/µmole, American Radiolabeled Chemicals Inc.), and 1.4 mM (~1.25 mg/ml) of (glyco)peptide (from 4 mM stock in 1 mM TRIS, pH ~7) and varying concentrations (0.01 to 0.5 µM) of transferase (determined by OD280), giving a final reaction volumes of 20 µl in 100 µl capped Eppendorf tubes. […] Before performing time course experiments, the relative activity of each transferase was determined by trial and error against all three peptides to determine the optimal transferase concentration or incubation time that gave no more than 10% peptide glycosylation against the best substrate. […] Total UDP-[^3H]-GalNAc utilization (transfer to peptide substrate and transfer to water, i.e, hydrolysis) was determined by difference after scintillation counting (Beckman LS5801 scintillation counter) 1/20 of the sample before and after passage over Dowex 1 × 8. The extent of [^3H]-GalNAc transfer to peptide and the extent of hydrolysis was determined by Sephadex G10 gel filtration analysis, typically for the longest reaction time point, as previously described. […]

GalNAc-T4 = target: T3, GalNAc-T4 (Homo sapiens, UniProt Q8N4A0); assay: Surface plasmon resonance; type: binding; conditions: SPR; peptide 0.01–5 mM; 25 °C, pH 7.5, 100 µM UDP, 4 mM MnCl2; in words
T3 construct: amino acid residues 36–578 of the human GalNAc-T4; histidine tag (C); made in house; host or cells: Pichia pastoris SMD1168 (pPICZαA, secreted)
Method: SPR experiments were performed at 25 °C with a Biacore X-100 apparatus (Biacore AB) in 25 mM Tris buffer, 1 mM DTT, 4 mM MnCl2, 100 µM UDP, 0.01% surfactant P20, pH 7.5 (running buffer) at 25 °C. Flow cells (CM5 sensor chip; Biacore) were activated for 7 min by injecting 140 µl of 50 mM N-hydroxysuccinimide (NHS): 200 mM ethyl-3(3dimethylamino) propylcarbodiimide (EDC). GalNAc-T4 was immobilized on a flow cell 2 by injection of a 100 µg/ml protein solution diluted with 10 mM sodium acetate buffer with a flow rate of 10 µl/min for 7 min followed by an injection of 130 µl ethanolamine to block any remaining activated groups on the surface. The level of immobilization reached was about 8000 RU. Flow cell 1, used as reference, was blocked with ethanolamine at the same conditions of flow cell 2 without immobilization of protein. Affinity experiments were made using a series of different concentrations of peptide 3 in the range of 0.01–5 mM with a flow rate of 30 µl/min during 100 s. Each injection was followed by a 100 s injection of running buffer (dissociation phase). No regeneration steps were performed between injections. Response data were collected at real time and analyzed with the Biacore® X-100 Evaluation software and plotted as response shift versus analyte concentration.

GalNAc-T2 chimeras 1–3 = assay: Specific activity / glycosylation preference of GalNAc-T2 chimeras 1-3; type: biochemical; conditions: in words
Method: as §3

T2 sequence (Q10471 75-571 E436N/R438H/D441E/H442D/Q443R/D444P/I445G/A446W/F447H): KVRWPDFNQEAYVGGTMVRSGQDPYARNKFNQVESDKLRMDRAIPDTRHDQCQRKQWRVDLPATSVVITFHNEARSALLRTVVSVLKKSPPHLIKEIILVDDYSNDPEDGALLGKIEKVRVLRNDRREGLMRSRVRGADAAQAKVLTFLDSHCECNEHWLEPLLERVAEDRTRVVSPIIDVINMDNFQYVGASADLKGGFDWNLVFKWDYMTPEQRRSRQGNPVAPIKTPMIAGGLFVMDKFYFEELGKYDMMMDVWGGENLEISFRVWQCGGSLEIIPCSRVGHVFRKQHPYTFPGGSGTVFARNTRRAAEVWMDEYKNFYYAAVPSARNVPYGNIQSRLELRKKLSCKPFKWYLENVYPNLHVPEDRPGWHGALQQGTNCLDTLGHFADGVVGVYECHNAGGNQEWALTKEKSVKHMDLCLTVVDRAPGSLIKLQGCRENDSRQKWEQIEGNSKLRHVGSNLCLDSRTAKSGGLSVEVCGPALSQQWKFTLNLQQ
T1 sequence (Q10471 75-571): as the sequence (Q10471 75-571 E436N/R438H/D441E/H442D/Q443R/D444P/I445G/A446W/F447H) above, with N362E, H364R, E367D, D368H, R369Q, P370D, G371I, W372A, H373F counted along it
T3 sequence (Q8N4A0 36-578): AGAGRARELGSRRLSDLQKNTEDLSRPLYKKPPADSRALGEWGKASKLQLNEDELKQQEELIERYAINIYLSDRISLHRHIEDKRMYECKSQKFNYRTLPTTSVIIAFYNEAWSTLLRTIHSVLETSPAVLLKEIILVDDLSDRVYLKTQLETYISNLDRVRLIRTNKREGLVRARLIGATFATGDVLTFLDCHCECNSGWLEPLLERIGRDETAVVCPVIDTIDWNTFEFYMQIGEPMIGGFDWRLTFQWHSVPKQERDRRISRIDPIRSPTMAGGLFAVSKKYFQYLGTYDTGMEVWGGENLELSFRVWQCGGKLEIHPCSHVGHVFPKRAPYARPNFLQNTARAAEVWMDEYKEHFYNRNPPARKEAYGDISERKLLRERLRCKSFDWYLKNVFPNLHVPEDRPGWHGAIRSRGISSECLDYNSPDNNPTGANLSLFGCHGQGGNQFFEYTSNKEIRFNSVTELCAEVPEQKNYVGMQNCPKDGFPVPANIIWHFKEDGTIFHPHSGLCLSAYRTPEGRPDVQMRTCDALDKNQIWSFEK

increase in catalytic efficiency for monoglycopeptide 2 over monoglycopeptide 3 (GalNAc-T2; GalNAc-T2, ratio 2 over 3)	Km of monoglycopeptide 2 compared to monoglycopeptide 3 (GalNAc-T2; GalNAc-T2, ratio, in words)	change in kinetic parameters (Vmax, Km) ([1]; chimera 3, in words)	Substance	Vmax (GalNAc-T2)	Km (GalNAc-T2)	Catalytic efficiency (Vmax/Km) (GalNAc-T2; GalNAc-T2)	substrate preference of GalNAc-T2, higher substrate concentrations (GalNAc-T2; in words)	substrate preference of GalNAc-T2, low substrate concentrations (GalNAc-T2; low substrate concentrations, in words)	Vmax [1]	Km [1]	Catalytic efficiency (Vmax/Km) [1]	specific activity against monoglycopeptide 2, change [2]	Kd determinability / binding saturation (GalNAc-T4)	specific activity and kinetic parameters against monoglycopeptide 3, change (GalNAc-T2 chimeras 1–3)
over threefold	~ fourfold lower	changes in Vmax and Km	AGAGTTPGPGAGAT*GA [Peptide 2, monoglycopeptide …*GA, T* denotes the Thr-O-GalNAc moiety]	3.12 ± 0.07 mM/(nmole*min)	180 ± 10 µM	17.0 ± 2.3 nmol/min	nearly equal preferences	high preference for monoglycopeptide 2 at low substrate concentrations	1.35 ± 0.11 mM/(nmole*min)	700 ± 140 µM	1.93 ± 0.8 nmol/min	decrease in the observed specific activity	–	–
–	–	–	GAT*GAGAGAGTTPGPG [Peptide 3, monoglycopeptide GAT*…, T* denotes the Thr-O-GalNAc moiety]	3.79 ± 0.34 mM/(nmole*min)	750 ± 130 µM	5.03 ± 1.8 nmol/min	nearly equal preferences	–	3.69 ± 0.29 mM/(nmole*min)	990 ± 160 µM	3.73 ± 1.2 nmol/min	–	binding saturation could not be achieved; also recorded: binding saturation was not achieved	remained relative constant
